Test results as given in US20220169628A1 (University of Florida Research Foundation, Incorporated, priority 2019, published 2022).
Like-named read-outs stand apart in the source and are kept apart here.

What was measured:
RS4;11 cells = assay: Cell viability assay, MTS, 48 h, RS4;11; type: cell-based; details: 48 hours, read-out: IC50 (48 hours) RS4;11
Description: (§1) Acute lymphoblastic leukemia cells (MOLT-4 and RS4; 11) or small cell lung cancer (NCI-H146 or simply H146) were incubated with increasing concentrations of Bcl-xL degraders for 48 h. Cell viability was measured by tetrazolium-based MTS assay.

MOLT-4 cells = assay: Cell viability assay, MTS, 48 h, MOLT-4; type: cell-based; details: 48 hours, read-out: IC50 (48 hours) MOLT-4
Description: as §1

Row | IC50 (RS4;11 cells; Homo sapiens, RS4-11, 48 h) [µM] | IC50 (MOLT-4 cells; Homo sapiens, MOLT-4, 48 h) [µM] | Compound | IC50 (RS4;11 cells) [µM] | IC50 (MOLT-4 cells) [µM]
1 | < 0.05 | 0.15 to 0.5 | Cc1ncsc1-c1ccc([C@H](C)NC(=O)[C@@H]2C[C@@H](O)CN2C(=O)[C@@H](NC(=O)CCCCCC(=O)NC2CCN(CC3(C)CCC(c4ccc(Cl)cc4)=C(CN4CCN(c5ccc(C(=O)NS(=O)(=O)c6ccc(N[C@H](CCN7CCOCC7)CSc7ccccc7)c(S(=O)(=O)C(F)(F)F)c6)cc5)CC4)C3)CC2)C(C)(C)C)cc1 (stereo partly drawn) [degrader #37, N1-(1-((4′-chloro-4-methyl-6-((4-(4-(((4-(((R)-4-morpholino-1-(phenylthio)butan-2-yl)amino)-3-((trifluoromethyl)sulfonyl)phenyl)sulfonyl)carbamoyl)phenyl)piperazin-1-yl)methyl)-2,3,4,5-tetrahydro-[1,1′-biphenyl]-4-yl)methyl)piperidin-4-yl)-N7-((S)-1-((2S,4R)-4-hydroxy-2-(((S)-1-(4-(4-methylthiazol-5-yl)phenyl)ethyl)carbamoyl)pyrrolidin-1-yl)-3,3-dimethyl-1-oxobutan-2-yl)heptanediamide] |  | 
2 |  |  | (2S,4R)-1-((S)-2-(12-(4-(4-chlorophenyl)-5-((4-(4-(((4-(((R)-4-morpholino-1-(phenylthio)butan-2-yl)amino)-3-((trifluoromethyl)sulfonyl)phenyl)sulfonyl)carbamoyl)phenyl)piperazin-1-yl)methyl)-3,6-dihydropyridin-1(2H)-yl)-12-oxododecanamido)-3,3-dimethylbutanoyl)-4-hydroxy-N—((S)-1-(4-(4-methylthiazol-5-yl)phenyl)ethyl)pyrrolidine-2-carboxamide [Example 7] | 0.05 to 0.15 | 0.05 to 0.15
3 |  |  | (2S,4R)-1-((S)-2-(7-(4-(4-chlorophenyl)-5-((4-(4-(((4-(((R)-4-morpholino-1-(phenylthio)butan-2-yl)amino)-3-((trifluoromethyl)sulfonyl)phenyl)sulfonyl)carbamoyl)phenyl)piperazin-1-yl)methyl)-3,6-dihydropyridin-1(2H)-yl)-7-oxoheptanamido)-3,3-dimethylbutanoyl)-4-hydroxy-N—((S)-1-(4-(4-methylthiazol-5-yl)phenyl)ethyl)pyrrolidine-2-carboxamide [Example 2] | 0.15 to 0.5 | 0.15 to 0.5
4 | > 0.5 | > 0.5 | Cc1ncsc1-c1ccc([C@H](C)NC(=O)[C@@H]2C[C@@H](O)CN2C(=O)[C@@H](NC(=O)CCCC(=O)N2CCN(C(=O)C3(C)CCC(c4ccc(Cl)cc4)=C(CN4CCN(c5ccc(C(=O)NS(=O)(=O)c6ccc(N[C@H](CCN7CCOCC7)CSc7ccccc7)c(S(=O)(=O)C(F)(F)F)c6)cc5)CC4)C3)CC2)C(C)(C)C)cc1 (stereo partly drawn) [compound 63, (2S,4R)-1-((2S)-2-(5-(4-(4′-chloro-4-methyl-6-((4-(4-(((4-(((R)-4-morpholino-1-(phenylthio)butan-2-yl)amino)-3-((trifluoromethyl)sulfonyl)phenyl)sulfonyl)carbamoyl)phenyl)piperazin-1-yl)methyl)-2,3,4,5-tetrahydro-[1,1′-biphenyl]-4-carbonyl)piperazin-1-yl)-5-oxopentanamido)-3,3-dimethylbutanoyl)-4-hydroxy-N—((S)-1-(4-(4-methylthiazol-5-yl)phenyl)ethyl)pyrrolidine-2-carboxamide] |  | 
5 | 0.05 to 0.15 | 0.05 to 0.15 | Cc1ncsc1-c1ccc([C@H](C)NC(=O)[C@@H]2C[C@@H](O)CN2C(=O)[C@@H](NC(=O)CCCCCC(=O)N2CCN(C(=O)C3(C)CCC(c4ccc(Cl)cc4)=C(CN4CCN(c5ccc(C(=O)NS(=O)(=O)c6ccc(N[C@H](CCN7CCOCC7)CSc7ccccc7)c(S(=O)(=O)C(F)(F)F)c6)cc5)CC4)C3)CC2)C(C)(C)C)cc1 (stereo partly drawn) [compound 64, (2S,4R)-1-((2S)-2-(7-(4-(4′-chloro-4-methyl-6-((4-(4-(((4-(((R)-4-morpholino-1-(phenylthio)butan-2-yl)amino)-3-((trifluoromethyl)sulfonyl)phenyl)sulfonyl)carbamoyl)phenyl)piperazin-1-yl)methyl)-2,3,4,5-tetrahydro-[1,1′-biphenyl]-4-carbonyl)piperazin-1-yl)-7-oxoheptanamido)-3,3-dimethylbutanoyl)-4-hydroxy-N—((S)-1-(4-(4-methylthiazol-5-yl)phenyl)ethyl)pyrrolidine-2-carboxamide] |  | 
6 | < 0.05 | < 0.05 | CC1(CNC(=O)COCCOCCNc2cccc3c2C(=O)N(C2CCC(=O)NC2=O)C3=O)CCC(c2ccc(Cl)cc2)=C(CN2CCN(c3ccc(C(=O)NS(=O)(=O)c4ccc(N[C@H](CCN5CCOCC5)CSc5ccccc5)c(S(=O)(=O)C(F)(F)F)c4)cc3)CC2)C1 (stereo partly drawn) [compound 77, 4-(4-((4′-chloro-4-((2-(2-(2-((2-(2,6-dioxopiperidin-3-yl)-1,3-dioxoisoindolin-4-yl)amino)ethoxy)ethoxy)acetamido)methyl)-4-methyl-3,4,5,6-tetrahydro-[1,1′-biphenyl]-2-yl)methyl)piperazin-1-yl)-N-((4-(((R)-4-morpholino-1-(phenylthio)butan-2-yl)amino)-3-((trifluoromethyl)sulfonyl)phenyl)sulfonyl)benzamide] |  | 
7 |  |  | (2S,4R)-1-((S)-2-(4-(4-(4-chlorophenyl)-5-((4-(4-(((4-(((R)-4-morpholino-1-(phenylthio)butan-2-yl)amino)-3-((trifluoromethyl)sulfonyl)phenyl)sulfonyl)carbamoyl)phenyl)piperazin-1-yl)methyl)-3,6-dihydropyridin-1(2H)-yl)-4-oxobutanamido)-3,3-dimethylbutanoyl)-4-hydroxy-N—((S)-1-(4-(4-methylthiazol-5-yl)phenyl)ethyl)pyrrolidine-2-carboxamide [Example 1] | 0.15 to 0.5 | 0.15 to 0.5
8 | 0.05 to 0.15 | 0.15 to 0.5 | Cc1ncsc1-c1ccc([C@H](C)NC(=O)[C@@H]2C[C@@H](O)CN2C(=O)[C@@H](NC(=O)CCCCCCC(=O)NCCN(C)CC2(C)CCC(c3ccc(Cl)cc3)=C(CN3CCN(c4ccc(C(=O)NS(=O)(=O)c5ccc(N[C@H](CCN6CCOCC6)CSc6ccccc6)c(S(=O)(=O)C(F)(F)F)c5)cc4)CC3)C2)C(C)(C)C)cc1 (stereo partly drawn) [compound 61, N1-(2-(((4′-chloro-4-methyl-6-((4-(4-(((4-(((R)-4-morpholino-1-(phenylthio)butan-2-yl)amino)-3-((trifluoromethyl)sulfonyl)phenyl)sulfonyl)carbamoyl)phenyl)piperazin-1-yl)methyl)-2,3,4,5-tetrahydro-[1,1′-biphenyl]-4-yl)methyl)(methyl)amino)ethyl)-N8-((S)-1-((2S,4R)-4-hydroxy-2-(((S)-1-(4-(4-methylthiazol-5-yl)phenyl)ethyl)carbamoyl)pyrrolidin-1-yl)-3,3-dimethyl-1-oxobutan-2-yl)octanediamide] |  | 
9 | 0.05 to 0.15 | 0.05 to 0.15 | Cc1ncsc1-c1ccc([C@H](C)NC(=O)[C@@H]2C[C@@H](O)CN2C(=O)[C@@H](NC(=O)CCCCC(=O)N2CCN(CC3(C)CCC(c4ccc(Cl)cc4)=C(CN4CCN(c5ccc(C(=O)NS(=O)(=O)c6ccc(N[C@H](CCN7CCOCC7)CSc7ccccc7)c(S(=O)(=O)C(F)(F)F)c6)cc5)CC4)C3)CC2)C(C)(C)C)cc1 (stereo partly drawn) [degrader #15, (2S,4R)-1-((2S)-2-(6-(4-((4′-chloro-4-methyl-6-((4-(4-(((4-(((R)-4-morpholino-1-(phenylthio)butan-2-yl)amino)-3-((trifluoromethyl)sulfonyl)phenyl)sulfonyl)carbamoyl)phenyl)piperazin-1-yl)methyl)-2,3,4,5-tetrahydro-[1,1′-biphenyl]-4-yl)methyl)piperazin-1-yl)-6-oxohexanamido)-3,3-dimethylbutanoyl)-4-hydroxy-N—((S)-1-(4-(4-methylthiazol-5-yl)phenyl)ethyl)pyrrolidine-2-carboxamide] |  | 
10 | 0.15 to 0.5 | 0.15 to 0.5 | Cc1ncsc1-c1ccc([C@H](C)NC(=O)[C@@H]2C[C@@H](O)CN2C(=O)[C@@H](NC(=O)CCCCCCCCCC(=O)N2CCC(c3ccc(Cl)cc3)=C(CN3CCN(c4ccc(C(=O)NS(=O)(=O)c5ccc(N[C@H](CCN6CCOCC6)CSc6ccccc6)c(S(=O)(=O)C(F)(F)F)c5)cc4)CC3)C2)C(C)(C)C)cc1 [compound 84, (2S,4R)-1-((S)-2-(11-(4-(4-chlorophenyl)-5-((4-(4-(((4-(((R)-4-morpholino-1-(phenylthio)butan-2-yl)amino)-3-((trifluoromethyl)sulfonyl)phenyl)sulfonyl)carbamoyl)phenyl)piperazin-1-yl)methyl)-3,6-dihydropyridin-1(2H)-yl)-11-oxoundecanamido)-3,3-dimethylbutanoyl)-4-hydroxy-N—((S)-1-(4-(4-methylthiazol-5-yl)phenyl)ethyl)pyrrolidine-2-carboxamide] |  | 
11 |  |  | (2S,4R)-1-((S)-2-(11-(4-(4-chlorophenyl)-5-((4-(4-(((4-(((R)-4-morpholino-1-(phenylthio)butan-2-yl)amino)-3-((trifluoromethyl)sulfonyl)phenyl)sulfonyl)carbamoyl)phenyl)piperazin-1-yl)methyl)-3,6-dihydropyridin-1(2H)-yl)-11-oxoundecanamido)-3,3-dimethylbutanoyl)-4-hydroxy-N—((S)-1-(4-(4-methylthiazol-5-yl)phenyl)ethyl)pyrrolidine-2-carboxamide [Example 6] | < 0.05 | 0.05 to 0.15
12 | 0.15 to 0.5 | 0.05 to 0.15 | CC1(CNC(=O)CCCCCCCCCCNc2cccc3c2C(=O)N(C2CCC(=O)NC2=O)C3=O)CCC(c2ccc(Cl)cc2)=C(CN2CCN(c3ccc(C(=O)NS(=O)(=O)c4ccc(N[C@H](CCN5CCOCC5)CSc5ccccc5)c(S(=O)(=O)C(F)(F)F)c4)cc3)CC2)C1 (stereo partly drawn) [compound 75, 4-(4-((4′-chloro-4-((11-((2-(2,6-dioxopiperidin-3-yl)-1,3-dioxoisoindolin-4-yl)amino)undecanamido)methyl)-4-methyl-3,4,5,6-tetrahydro-[1,1′-biphenyl]-2-yl)methyl)piperazin-1-yl)-N-((4-(((R)-4-morpholino-1-(phenylthio)butan-2-yl)amino)-3-((trifluoromethyl)sulfonyl)phenyl)sulfonyl)benzamide] |  | 
